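Dose response: 5 concentrations. Exposure: 48 h. Format: 96-well plates. Endpoint: linear interpolation; highest concentration if not reached. At the TGI there is no net growth.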
Assays:
Assay in all cases: NCI tumour cell line growth inhibition, 48 h
DMS 114 small cell lung = system: DMS 114 small cell lung
CCRF-CEM leukemia = system: CCRF-CEM leukemia
SNB-75 CNS = system: SNB-75 CNS
UO-31 renal = system: UO-31 renal
UACC-257 melanoma = system: UACC-257 melanoma
A498 renal = system: A498 renal
SK-MEL-28 melanoma = system: SK-MEL-28 melanoma
HCT-116 colon = system: HCT-116 colon
SF-268 CNS = system: SF-268 CNS
LXFL 529 NSCLC = system: LXFL 529 NSCLC
SF-539 CNS = system: SF-539 CNS
HOP-18 NSCLC = system: HOP-18 NSCLC
M14 melanoma = system: M14 melanoma
KM12 colon = system: KM12 colon
SK-MEL-2 melanoma = system: SK-MEL-2 melanoma
COLO 205 colon = system: COLO 205 colon
SNB-78 CNS = system: SNB-78 CNS
HCC-2998 colon = system: HCC-2998 colon
K-562 leukemia = system: K-562 leukemia
IGROV1 ovarian = system: IGROV1 ovarian
TK-10 renal = system: TK-10 renal
HOP-62 NSCLC = system: HOP-62 NSCLC
MALME-3M melanoma = system: MALME-3M melanoma
LOX IMVI melanoma = system: LOX IMVI melanoma
CAKI-1 renal = system: CAKI-1 renal
KM20L2 colon = system: KM20L2 colon
SN12C renal = system: SN12C renal
NCI-H23 lung = system: NCI-H23 lung
RXF-631 renal = system: RXF-631 renal
SF-295 CNS = system: SF-295 CNS
DLD-1 colon = system: DLD-1 colon
DMS 273 small cell lung = system: DMS 273 small cell lung
RXF 393 renal = system: RXF 393 renal
NCI-H522 lung = system: NCI-H522 lung
OVCAR-3 ovarian = system: OVCAR-3 ovarian
NCI-H460 lung = system: NCI-H460 lung
MOLT-4 leukemia = system: MOLT-4 leukemia
ACHN renal = system: ACHN renal
786-0 renal = system: 786-0 renal
M19-MEL melanoma = system: M19-MEL melanoma
SW-620 colon = system: SW-620 colon
NCI-H226 lung = system: NCI-H226 lung
HL-60(TB) leukemia = system: HL-60(TB) leukemia
U251 CNS = system: U251 CNS
SNB-19 CNS = system: SNB-19 CNS
HT29 colon = system: HT29 colon
A549 NSCLC = system: A549 NSCLC
SK-OV-3 ovarian = system: SK-OV-3 ovarian
XF 498 CNS = system: XF 498 CNS
RPMI-8226 leukemia = system: RPMI-8226 leukemia
HCT-15 colon = system: HCT-15 colon
UACC-62 melanoma = system: UACC-62 melanoma
EKVX NSCLC = system: EKVX NSCLC
SK-MEL-5 melanoma = system: SK-MEL-5 melanoma
HOP-92 NSCLC = system: HOP-92 NSCLC
OVCAR-4 ovarian = system: OVCAR-4 ovarian
OVCAR-8 ovarian = system: OVCAR-8 ovarian
OVCAR-5 ovarian = system: OVCAR-5 ovarian

Cc1cc(C)c(C(=O)OC(c2ccccc2)C(c2ccccc2)N2CCOCC2)c(C)c1 (centres undefined)
TGI (DMS 114 small cell lung): > 100 µM | TGI (CCRF-CEM leukemia): > 100 µM | TGI (SNB-75 CNS): > 100 µM | TGI (UO-31 renal): > 100 µM | TGI (UACC-257 melanoma): > 100 µM | TGI (A498 renal): > 100 µM | TGI (SK-MEL-28 melanoma): > 100 µM | TGI (HCT-116 colon): > 100 µM | TGI (SF-268 CNS): > 100 µM | TGI (LXFL 529 NSCLC): > 100 µM | TGI (SF-539 CNS): > 100 µM | TGI (HOP-18 NSCLC): > 100 µM | TGI (M14 melanoma): > 100 µM | TGI (KM12 colon): > 100 µM | TGI (SK-MEL-2 melanoma): > 100 µM | TGI (COLO 205 colon): > 100 µM | TGI (SNB-78 CNS): > 100 µM | TGI (HCC-2998 colon): > 100 µM | TGI (K-562 leukemia): > 100 µM | TGI (IGROV1 ovarian): > 100 µM | TGI (TK-10 renal): > 100 µM | TGI (HOP-62 NSCLC): > 100 µM | TGI (MALME-3M melanoma): > 100 µM | TGI (LOX IMVI melanoma): > 100 µM | TGI (CAKI-1 renal): > 100 µM | TGI (KM20L2 colon): > 100 µM | TGI (SN12C renal): > 100 µM | TGI (NCI-H23 lung): > 100 µM | TGI (RXF-631 renal): > 100 µM | TGI (SF-295 CNS): > 100 µM | TGI (DLD-1 colon): > 100 µM | TGI (DMS 273 small cell lung): > 100 µM | TGI (RXF 393 renal): > 100 µM | TGI (NCI-H522 lung): > 100 µM | TGI (OVCAR-3 ovarian): > 100 µM | TGI (NCI-H460 lung): > 100 µM | TGI (MOLT-4 leukemia): > 100 µM | TGI (ACHN renal): > 100 µM | TGI (786-0 renal): > 100 µM | TGI (M19-MEL melanoma): > 100 µM | TGI (SW-620 colon): > 100 µM | TGI (NCI-H226 lung): > 100 µM | TGI (HL-60(TB) leukemia): > 100 µM | TGI (U251 CNS): > 100 µM | TGI (SNB-19 CNS): > 100 µM | TGI (HT29 colon): > 100 µM | TGI (A549 NSCLC): > 100 µM | TGI (SK-OV-3 ovarian): > 100 µM | TGI (XF 498 CNS): > 100 µM | TGI (RPMI-8226 leukemia): 85.3 µM | TGI (HCT-15 colon): > 100 µM | TGI (UACC-62 melanoma): > 100 µM | TGI (EKVX NSCLC): > 100 µM

CCc1cccc(C)c1NC(=O)NS(=O)(=O)c1ccc(C)cc1
TGI (DMS 114 small cell lung): > 100 µM | TGI (CCRF-CEM leukemia): > 100 µM | TGI (SNB-75 CNS): > 100 µM | TGI (UO-31 renal): > 100 µM | TGI (UACC-257 melanoma): > 100 µM | TGI (A498 renal): > 100 µM | TGI (SK-MEL-28 melanoma): > 100 µM | TGI (HCT-116 colon): > 100 µM | TGI (SK-MEL-5 melanoma): > 100 µM | TGI (SF-268 CNS): > 100 µM | TGI (LXFL 529 NSCLC): > 100 µM | TGI (SF-539 CNS): > 100 µM | TGI (HOP-18 NSCLC): > 100 µM | TGI (M14 melanoma): > 100 µM | TGI (KM12 colon): > 100 µM | TGI (SK-MEL-2 melanoma): > 100 µM | TGI (HOP-92 NSCLC): > 100 µM | TGI (COLO 205 colon): > 100 µM | TGI (SNB-78 CNS): > 100 µM | TGI (HCC-2998 colon): > 100 µM | TGI (K-562 leukemia): > 100 µM | TGI (IGROV1 ovarian): > 100 µM | TGI (TK-10 renal): > 100 µM | TGI (HOP-62 NSCLC): > 100 µM | TGI (OVCAR-4 ovarian): > 100 µM | TGI (MALME-3M melanoma): > 100 µM | TGI (LOX IMVI melanoma): > 100 µM | TGI (CAKI-1 renal): > 100 µM | TGI (KM20L2 colon): > 100 µM | TGI (SN12C renal): > 100 µM | TGI (NCI-H23 lung): > 100 µM | TGI (RXF-631 renal): > 100 µM | TGI (OVCAR-8 ovarian): > 100 µM | TGI (SF-295 CNS): > 100 µM | TGI (DLD-1 colon): > 100 µM | TGI (DMS 273 small cell lung): > 100 µM | TGI (RXF 393 renal): > 100 µM | TGI (NCI-H522 lung): > 100 µM | TGI (OVCAR-3 ovarian): > 100 µM | TGI (NCI-H460 lung): > 100 µM | TGI (MOLT-4 leukemia): > 100 µM | TGI (ACHN renal): > 100 µM | TGI (786-0 renal): > 100 µM | TGI (OVCAR-5 ovarian): > 100 µM | TGI (M19-MEL melanoma): > 100 µM | TGI (SW-620 colon): > 100 µM | TGI (HL-60(TB) leukemia): > 100 µM | TGI (U251 CNS): > 100 µM | TGI (SNB-19 CNS): > 100 µM | TGI (A549 NSCLC): > 100 µM | TGI (SK-OV-3 ovarian): > 100 µM | TGI (XF 498 CNS): > 100 µM | TGI (RPMI-8226 leukemia): > 100 µM | TGI (HCT-15 colon): > 100 µM | TGI (UACC-62 melanoma): > 100 µM | TGI (EKVX NSCLC): > 100 µM

— PubChem BioAssay (NCI)
